Assay: Oral bioavailability after IV and PO administration
Assay type: in vivo
Conditions: male, Sprague-Dawley, rat, plasma, read-out: Rat % F
Protocol: The invention encompasses compounds of formula (I) that are orally bioavailable. Oral bioavailability can be determined following both an intravenous (IV) and oral (PO) administration of a test compound.
Oral Bioavailability was determined in the male Sprague-Dawley rat following both IV and PO administration of test compound. Two month-old male rats (250-300 g) were surgically implanted with polyethylene (PE-50) cannula in the jugular vein while under isoflurane anesthesia the day before the in-life phase. Animals were fasted overnight with water ad libitum, then dosed the next day. The dosing regime consisted of either a 5 mg/kg (2.5 mL/kg) IV dose (N=3) administered to the jugular vein cannula, then flushed with saline, or a 10 mg/kg (5 mL/kg) PO dose (N=3) by esophageal gavage. Compounds were formulated with 10% Solutol in 5% dextrose at 2 mg/mL. […]
Compounds were extracted from samples following precipitation of the plasma proteins by methanol. […] Experimental samples were compared to calibration curves prepared in parallel with aged match rat plasma and quantitated with a weighted 1/x linear regression. […]
AUC is calculated from the linear trapezoidal rule by AUC=((C2+C1)/2)×(T2−T1) where C is concentration and T is time.
Pharmacokinetic parameters were calculated by a non-compartmental approach. […]

With `CC(=O)NC(Cc1cc(F)cc(F)c1)C(O)CNC1(c2cccc(C(C)(C)C)c2)CCCCC1` (stereo not shown) [Example 197-1, N-[3-[1-(3-tert-Butyl-phenyl)-cyclohexylamino]-1-(3,5-difluoro-benzyl)-2-hydroxy-propyl]-acetamide] the bioavailability was 20.2%.
